# Results published in PMC12518634, “The noncanonical function of liver-type phosphofructokinase potentiates the efficacy of HDAC inhibitors in cancer” (Signal Transduction and Targeted Therapy, 2025).
# Tests used:
# TFK1 cells [1] = assay: Cell viability assay (CellTiter-Glo, 72 h), GI50; type: cell-based, human; conditions: Homo sapiens
# Experimental: (§1) Cell viability was assessed using the CellTiter-Glo luminescent cell viability assay (Vazyme, DD1101) following the manufacturer’s instructions. Briefly, 5000 cells per well were seeded into a 96-well white bottom permeable plate. Different concentrations of drugs were added to each well. After 72 h of treatment, a mixture of CellTier reagent and serum-free culture medium was prepared at a 1:1 ratio, and 100 μL of the mixture was added to each well. After incubation at 37 °C for 15 min, the luminescence was measured using a microplate reader (Synergy H1, Biotek). All the experiments were conducted in triplicate. Cell viability (relative luminescence) was defined as the luminescence of the drug treatment relative to that of the vehicle control.
# A549 cells = assay: Cell viability assay (CellTiter-Glo, 72 h), GI50; type: cell-based; conditions: Homo sapiens, A549, 72 h
# Experimental: as §1
# BT-549 cells = assay: Cell viability assay (CellTiter-Glo, 72 h), GI50; type: cell-based; conditions: Homo sapiens, BT-549, 72 h
# Experimental: as §1
# MCF7 cells = assay: Cell viability assay (CellTiter-Glo, 72 h), GI50; type: cell-based; conditions: Homo sapiens, Fig. 6a
# Experimental: as §1
# RMG-I cells = assay: Cell viability assay (CellTiter-Glo, 72 h), GI50; type: cell-based; conditions: Homo sapiens
# Experimental: as §1
# NCI-H596 cells = assay: Cell viability assay (CellTiter-Glo, 72 h), GI50; type: cell-based; conditions: Homo sapiens, Fig. 6a
# Experimental: as §1
# TOV21G cells = assay: Cell viability assay (CellTiter-Glo, 72 h), GI50; type: cell-based; conditions: Homo sapiens, Fig. 6a
# Experimental: as §1
# [2] = test system: H3K9ac and H3K27ac in TFK1 cells; assay: Immunoblot of H3K9ac and H3K27ac; type: cell-based, human; conditions: prolonged romidepsin treatment, n = 3 biological replicates, Fig. 3f
# Experimental: For immunoblotting, cells were washed with ice-cold PBS and lysed in RIPA lysis buffer (supplemented with protease inhibitor and phosphatase inhibitor cocktails Ⅱ and Ⅲ) for 15 min at 4 °C. The protein concentrations of the samples were normalized using a BCA protein assay kit (Thermo). Immunoblots were performed with specific primary antibodies, followed by the addition of a fluorescein-conjugated secondary antibody, after which the proteins were detected via an Odyssey fluorescence scanner (LI-COR).
# TFK1 cells [3] = conditions: PFKL-knockout (sgPFKL) TFK1 cells and PFKL-overexpressing (ovPFKL) HuCCT1 cells; LC-MS/MS of cell lysates; n=3 biological replicates; Supplementary Fig. 5f
# [4] = romidepsin combined with NS or peptide, Fig. 6c
smiles,measurement,setting,value
"Cc1[nH]c2ccccc2c1CCNCc1ccc(/C=C/C(=O)NO)cc1 [Panobinostat, panobinostat]",GI50,"TFK1 cells [1]; TFK1, CellTiter-Glo, Fig. 1b",0.0627 µM
same,GI50,"TFK1 cells [1]; TFK1 after interference with LHCGR si-1, Fig. 1f",0.031 µM
same,GI50,"TFK1 cells [1]; TFK1 after interference with LHCGR si-2, Fig. 1f",0.0283 µM
same,GI50,"TFK1 cells [1]; TFK1 after interference with NFIA si-1, Fig. 1f",0.0427 µM
same,GI50,"TFK1 cells [1]; TFK1 after interference with NFIA si-2, Fig. 1f",0.0466 µM
same,GI50,"TFK1 cells [1]; TFK1 after interference with PFKFB1 si-1, Fig. 1f",0.0451 µM
same,GI50,"TFK1 cells [1]; TFK1 after interference with PFKFB1 si-2, Fig. 1f",0.0606 µM
same,GI50,"TFK1 cells [1]; TFK1 after interference with PFKL si-1, Fig. 1f",0.605 µM
same,GI50,"TFK1 cells [1]; TFK1 after interference with PFKL si-2, Fig. 1f",0.402 µM
same,GI50,"TFK1 cells [1]; TFK1 expressing sgNC, Fig. 1g",0.0539 µM
same,GI50,"TFK1 cells [1]; TFK1 expressing sgPFKL-1, Fig. 1g",0.964 µM
same,GI50,"TFK1 cells [1]; TFK1 expressing sgPFKL-2, Fig. 1g",0.644 µM
same,GI50,"TFK1 cells [1]; TFK1 siNC, Fig. 1f",0.0401 µM
"C/C=C1\NC(=O)[C@H]2CSSCC/C=C/[C@H](CC(=O)N[C@H](C(C)C)C(=O)N2)OC(=O)[C@H](C(C)C)NC1=O [Romidepsin, romidepsin]",GI50,A549 cells; Fig. 6a,0.00587 µM
same,GI50,A549 cells; [4],0.00762 µM
same,GI50,"BT-549 cells; BT549, romidepsin combined with NS or peptide, Fig. 6c",0.0163 µM
same,GI50,"BT-549 cells; BT-549, Fig. 6a",0.0137 µM
same,GI50,MCF7 cells,0.00056 µM
same,GI50,RMG-I cells; Fig. 6a,0.00571 µM
same,GI50,RMG-I cells; [4],0.00948 µM
same,GI50,NCI-H596 cells,0.00012 µM
same,GI50,TOV21G cells,0.00036 µM
same,acetylation at the H3K9 and K27 histone sites,[2],gradual increase in acetylation
same,cellular uptake of romidepsin with differential expression of PFKL,TFK1 cells [3],did not affect the cellular uptake
